The values that follow come from patent US12377112B2, “Methods of treating neurocognitive disorders, chronic pain and reducing inflammation” (priority 2019, dated 2025).

Marks after values point to notes of the source that are not given here.

One test concerns Wistar-Kyoto (WKY) rats. Briefly: Sleep-wake amounts (EEG/EMG) in Wistar-Kyoto rats. Format: in vivo, rat. The note with it: 5 mg/kg and 10 mg/kg s.c. The source says:
Since WKY rats show decreased sensitivity to conventional monoamine-based antidepressant treatment, they are used as a model of TRD.
Male (WKY) rats (200-250 g) were implanted with electroencephalography (EEG) and electromyography (EMG) electrodes and telemetry transmitters under general anaesthesia (2-5% isoflurane in Oxygen). A telemetry transmitter (HD-502, Data Sciences International) was placed in the peritoneal cavity, and the wires of the transmitter were passed through the muscle wall and then sub-dermally to the scalp to act as EEG/EMG electrodes. Two bore holes were made in the skull (Fronto-parietal coordinates; Bregma +2 mm anterior, midline +1.0 mm lateral and Lambda 0 mm, +1.5 mm lateral). The positive EEG electrode was attached to the anterior bore hole and the negative EEG electrode to the posterior bore hole. Both electrodes were secured in place using a suitable adhesive agent (Cyanoacrylate gel, RS components). […]
Animals were maintained on a 12/12 hour light dark cycle. On study days, the animals were placed in recording boxes and EEG/EMG, locomotor activity, as well as body temperature were recorded for 0.5 h before and 24 h after each dosing. […]
The subsequent EEG/EMG recordings were automatically scored as wake, non-REM (NREM) sleep, or REM sleep in 10 second epochs using SleepSign (Kissei Comtec, Japan). […]

The test system of another test is male C57BL/6 mice. As to the kind of experiment: Chronic constriction injury (CCI) model of neuropathic pain, von Frey paw withdrawal threshold. It is filed as in vivo, mouse. On the procedure:
To determine whether psilocybin may alleviate chronic neuropathic pain, various doses of psilocybin were tested in a mouse model of chronic constriction injury (CCI).
Male C57BL/6 mice (age 6-7 weeks, source: Charles River UK) were housed in standard caging in groups of 2-4, with free access to food (5CR4, Purina) and water (except during placement in the test box) on a 12/12 light/dark cycle.
All animals underwent behavioral testing of mechanical allodynia on three consecutive days (Day −2, Day−1 and Day 0) prior to surgery in order to determine the baseline withdrawal thresholds. Briefly, Static mechanical (tactile) allodynia was assessed by measurement of withdrawal threshold using calibrated (force; g) von-Frey monofilaments (Touch-Test Sensory Evaluator; Scientific Marketing Associates) applied to the plantar surface of the hind-paw. The animals were placed in individual Perspex boxes on a raised metal mesh for 30-40 minutes before the test. A series of graduated von Frey hairs (0.07, 0.16, 0.4, 0.6 and 1 g) was applied in sequence with a protocol of 1 second on 1 second off, repeated 10 times. Each hair was applied perpendicularly to the center of the ventral surface of the paw until it slightly bends. The force applied to the hind-paw of the animal to induce 5 responses out of 10 trials was recorded as paw withdrawal threshold (PWT). Three baseline paw withdrawal thresholds were taken on ipsilateral paws. The mean of the last two readings used as the baseline withdrawal threshold.
Subsequently, surgery was performed under anesthesia (Isoflurane mixed with oxygen, 3:1, 2 L/min) to tie three loose ligatures of prolene (7-0, Ethicon) around the sciatic nerve, with 1 mm spacing between each. The nerve was then returned below the muscle layer and the wound closed using absorbable sutures (Vicryl).
Following recovery from surgery, Von Frey assessment of mechanical allodynia was taken on days 19 and 22. Animals were then ranked and randomized (based on a Latin square design) to treatment groups according to the percentage change (compared to pre-surgery baseline) of the mean mechanical withdrawal threshold observed on days 19 and 22. Only those animals showing a PWT percentage change of >50% from pre-surgery baseline were included in the study.
On day 23, the animals were dosed with psilocybin (1, 3 or 10 mg/kg by intraperitoneal injection) or vehicle (10 mL/kg by intraperitoneal injection). Nerve pain medication Pregabalin (15 mg/kg administered orally) was also used as a positive control. Allodynia was then assessed at 0.5, 4 and 24 hours post-treatment timepoint (PTT).

The subject of test [1] is human iPSC-derived neurons. As to the kind of experiment: Neurite outgrowth in human iPSC-derived neurons. Format: cell-based. On the procedure: The neurotrophic effect of psilocin was tested on human iPSC-derived neuronal cultures. Two parameters were evaluated: the average number of neurites per neuron, and the average total neurite length per neuron. Briefly, neurons establish physical connections between them in order to create neuronal networks.
Cryopreserved iCell neurons were thawed and plated according to Cellular Dynamics International instructions. The pharmacological treatments were carried out 2 hours after the cell plating. The cells were maintained in a humidified incubator at 37° C. in 5% CO2-95% air atmosphere.
Stock solutions of psilocin were prepared in 100% DMSO at 1000 times the final concentration in the culture media (1000× concentration).
For each culture, each condition was performed in sextuplet.
Each plate contained two types of other experimental conditions: the control condition treated with vehicle and the culture treated with Brain-derived neutrophic factor (BDNF).
Plate 1 and 2: Cells were treated with psilocin at 3 different concentrations: 0.03 μM, 0.1 μM, 0.3 μM. The stock solution was prepared fresh in 100% DMSO at 10 mM. BDNF was used in parallel.
Ten days after plating, cultures were fixed with paraformaldehyde in PBS (phosphate buffered saline) (4%, Sigma). Then, cells were successively permeabilized, saturated with PBS (containing 3% of BSA) and incubated for 1 h with anti-beta III tubulin antibody (Sigma) at 1/10 000 in PBS containing 0.5% of BSA (bovine serum albumin). Cells were first washed and were then incubated 1 h with goat anti-mouse antibody coupled with AF488 (Invitrogen A11001) diluted at 1/1000 in PBS containing 0.5% of BSA. Finally, nuclei are stained with DAPI 1 mg/ml at 1/1000 in PBS containing 0.5% of BSA. After rinsing them with PBS, the plate was filmed and neurite networks were examined and analyzed using High-Content Screening (CellInsight, Thermo Scientific).
The evaluation of neurite outgrowth was performed using the average number of neurites per neuron and the average of total neurite length per neuron, using Sholl method (Bird & Cuntz, 2019). (See FIG. 59A, FIG. 59B, FIG. 60A, FIG. 60B).

The test system of test [2] is rat embryo mesencephalic cells, 6-OHDA. As to the kind of experiment: 6-OHDA damage on mesencephalic neuronal cultures (TH positive neurons). It is filed as cell-based. The note with it: 1 μM, 3 μM and 10 μM, one hour prior to 15 μM 6-OHDA. As for the experimental part: The neuroprotective effect of psilocin against 6-OHDA-mediated injury on mesencephalic neuronal cultures was investigated.
A primary culture of rat embryo mesencephalic cells was plated on a 96-well plate. The cells were maintained at 37° C. in 5% CO2. Half of the medium was changed on day 2.
On day 6, the culture medium was removed and replaced by media containing psilocin (0.03 μM, 0.1 μM, 0.3 μM, 1 μM, 3 μM, or 10 μM), a negative control (saline vehicle, labelled control in FIG. 10), or a positive control (brain-derived neurotrophic factor (BDNF) and glial cell-derived neurotrophic factor (GDNF))). After one hour, 15 μM 6-OHDA was added for 48 hours.
On day 8, immunodetection was used to determine the number of tyrosine hydroxylase positive neurons.
Neuronal viability was assessed 48 hours after 6-OHDA intoxication and measured by the number of TH (tyrosine hydroxylase) positive neurons. The compound 6-OHDA kills specifically dopaminergic neurons, mimicking the cellular pathophysiology of Parkinson's disease. […] The result for each well was expressed as a percentage by setting the density of tyrosine hydroxylase positive cells under control conditions to 100%. The result for each condition was reported as mean (±S.E.M.) from 4 independent cultures.

Test [3] concerns rat primary hippocampal culture, Aβ 1-40 intoxication. As to the kind of experiment: Fibrillated amyloid-β damage on cultures of hippocampal neurons (MTT viability). It is filed as cell-based. The source says:
Amyloid-β toxicity is a hallmark of Alzheimer's disease, and is also frequently seen in multiple sclerosis lesions. In this study, the neuroprotective effect of psilocin on amyloid-β-induced neuronal death in rat primary hippocampal culture was investigated.
Female Wistar rats of 19 days gestation were killed by cervical dislocation and foetuses were removed from the uterus. Their brains were placed in ice-cold medium of Leibovitz (L15, Gibco, Fisher bioblock, France). Hippocampi were carefully removed, and the hippocampal neurons were dissociated by trypsinization for 30 min at 37° C. (trypsin-EDTA, Gibco) in presence of 0.1 mg/ml DNAse I (Roche, France). […] Viable cells were counted in a Neubauer cytometer using the trypan blue exclusion test (Sigma). […]
Psilocin was added to cells 10 minutes or 48 hours before amyloid-β intoxication. Neuronal viability was assessed 48 hours after amyloid-β intoxication. […]
Two days after Aβ exposure (day 11), cell viability was assessed by a measurement of cell metabolic activity using the CellTiter96® non-radioactive kit (MTT, Promega, Charbonnières, France). […] Solubilization solution was added and visible wavelength absorbance data was collected 4 hours later using a 96-well plate reader at 570 nm and 630 nm for non-specific background (Multiskan EX, Thermo Fisher).

For the compound `CNC1(c2ccccc2Cl)CCCCC1=O` (centres unmarked) [ketamine], the “Amount of REM sleep” value in the test with Wistar-Kyoto (WKY) rats is “decreased the amount of REM sleep in a dose-dependent manner”.

With `CC(C)C[C@H](CN)CC(=O)O` [pregabalin, reference compound], the “Force-induced paw withdrawal, mean” value is 0.13 g with male C57BL/6 mice (15 mg/kg PO group, D19-22 Neuropathic baseline (before dosing)); 0.67 g in the test on male C57BL/6 mice (15 mg/kg PO group, D-2 D-1 Baseline (before surgery and dosing)); 0.19 g in the test on male C57BL/6 mice (15 mg/kg PO, D23 0.5 hours PTT); 0.46* g in the test with male C57BL/6 mice (15 mg/kg PO, D23 4 hours PTT); 0.16 g in the test with male C57BL/6 mice (15 mg/kg PO, D24 24 hours PTT). The “Paw withdrawal threshold vs neuropathic baseline” value in the test on male C57BL/6 mice (15 mg/kg orally, 4 hours) was “significant increase”.

As for `CN(C)CCc1c[nH]c2cccc(O)c12` [psilocin], in test [1] (0.03 μM, treated at Day 0), the “Average lengths of neurites” value is “significant increases”. In test [1] (0.03 μM, treated at Day 3), the “Average length of neurites” value is “increase” and the “Number of neurites per neurons” value is listed as “increase”. In addition, the Length of neurites result in test [1] (0.1 μM) is “increased”. The “Neuronal viability (TH positive neurons) after 6-OHDA” value in test [2] was “increased neuronal viability”. The “Neuronal viability after amyloid-β” value in test [3] (10 μM, applied 10 minutes prior to amyloid-β) was “increased neuronal viability”. The “Neuronal viability after amyloid-β” value in test [3] (0.3, 1, 3 and 10 μM, applied 48 hours prior to amyloid-β) is listed as “increased neuronal viability”.
